Consider 104 compounds from PubChem BioAssay AID1996.

Molecules are shown by their SMILES. Converted amounts (≈) assume the structure as drawn.

The conditions of this data set: buffer; pH 7.4; 200.0 µM.
Take `COc1cc([N+](=O)[O-])ccc1NC(=O)NCc1cccnc1`: the solubility (kinetic) stood at 17 µg/mL (≈ 56.2 µM).
Regarding `Cc1ccc2c(c1)N(C(C)C(=O)NCc1ccccn1)C(=O)CO2` (centres undefined), the kinetic solubility is > 48.8 µg/mL.
`CSc1cccc(N2C(=O)C3CCCN3C2=S)c1` (centres undefined) gave a solubility (kinetic) of 36.2 µg/mL (≈ 130 µM).
As for `CCn1c(/C=C/c2ccc(O)cc2)nc2ccccc2c1=O`, the kinetic solubility came out at 2.8 µg/mL (≈ 9.58 µM).
`Cc1nc2ccccc2c(=O)n1Cc1ccc([N+](=O)[O-])cc1`: the solubility (kinetic) was > 44.3 µg/mL.
Compound `C=CCn1c(SCc2ccccc2)nc2c1c(=O)[nH]c(=O)n2C` came in with a solubility (kinetic) of 25 µg/mL (≈ 76.1 µM).
As for `CC(C)C(=O)NCc1cc(-c2ccccc2)no1`, the solubility (kinetic) was determined as 32.5 µg/mL (≈ 133 µM).
Take `COc1ccc(CCNC(=O)COC(=O)/C=C/c2ccc3c(c2)OCO3)cc1`: the solubility (kinetic) turned out to be 2.2 µg/mL (≈ 5.74 µM).
Turning to `CCCCCCC(=O)N(O)C1CC(=O)N(c2ccc(Cl)cc2)C1=O` (centres undefined), the kinetic solubility amounted to 43.9 µg/mL (≈ 124 µM).
Under `CCNS(=O)(=O)c1ccc(CCC(=O)N2CCC(C)CC2)cc1` stands 49 µg/mL (≈ 145 µM).
Regarding `Cc1ccc(NC(=O)Nc2ncnc3nc[nH]c23)cc1`, the kinetic solubility was determined as 6.3 µg/mL (≈ 23.5 µM).
The compound `CCOc1ccc(NC(=O)CCC(=O)c2ccc(F)cc2)cc1` displayed a kinetic solubility of 2.5 µg/mL (≈ 7.93 µM).
Turning to `Cc1ccc(C(=O)CNc2ccccc2)cc1`, the solubility (kinetic) is 4.1 µg/mL (≈ 18.2 µM).
In the case of `O=C(NCc1csc(-c2ccccc2)n1)c1cc(F)cc2c1OCOC2`, the solubility (kinetic) is 5.7 µg/mL (≈ 15.4 µM).
Under `C=CCNC(=O)c1ccc2c(c1)N(CC)C(=O)c1ccccc1S2` stands > 50.8 µg/mL; under `CC1CC(C)CN(C(=O)COC(=O)c2ccc(S(=O)(=O)N(C)c3ccccc3)cc2)C1` (centres undefined), 7.8 µg/mL (≈ 17.5 µM).
`O=S(=O)(c1ccc(=S)[nH]c1)N1CCOCC1`: the solubility (kinetic) worked out at 21.6 µg/mL (≈ 83 µM).
Under `CN(c1ccc(OCC(=O)OCC(=O)Nc2ccc(OC(F)F)cc2)cc1)S(=O)(=O)c1cccs1` stands 19.1 µg/mL (≈ 36.3 µM); under `O=C(Nc1ncc2c(n1)-c1ccccc1OC2)c1cccc([N+](=O)[O-])c1`, 1.4 µg/mL (≈ 4.02 µM).
`Cc1cc(F)ccc1NC(=S)NC1CCCC1` gave a solubility (kinetic) of 37.2 µg/mL (≈ 147 µM).
In the case of `CC(NC(=O)c1ccco1)C(=O)N1CC=C(c2ccccc2)CC1` (centres undefined), the solubility (kinetic) is > 48.7 µg/mL.
Regarding `C=CCNC(=O)COc1ccccc1C#N`, the solubility (kinetic) is > 32.4 µg/mL.
On to `CCCN1C2CCCC1CC(NC(=O)c1cccc(OC)c1)C2` (centres undefined), for which the kinetic solubility is > 47.5 µg/mL.
Under `Cc1ccccc1OC(C)C(=O)N1CCN(c2ccccn2)CC1` (centres undefined) stands > 48.8 µg/mL.
For `O=C(O)CCN1C(=O)C2C3c4ccccc4C(c4ccccc43)[C@@H]2C1=O` (some centres undefined), the kinetic solubility worked out at 46.8 µg/mL (≈ 135 µM).
In turn, `N#Cc1c(N)n(-c2ccccc2N)c2nc3ccccc3nc12` had a solubility (kinetic) of 5.4 µg/mL (≈ 18 µM).
Under `COc1ccc(C2NC(=O)N(C)C(C)=C2[N+](=O)[O-])cc1` (centres undefined) stands > 41.6 µg/mL; under `Cc1c(Cl)cccc1NC(=O)CNC(=O)C1CC(=O)N(C2CCCC2)C1` (centres undefined), > 56.7 µg/mL; under `O=C1COc2ccc(C(=O)NC3CC3)cc2N1`, > 34.8 µg/mL.
For the compound `COc1ccc(OC)c(CN2CCN(C(=O)CNC(=O)c3ccccc3F)CC2)c1`, the solubility (kinetic) came to 59.9 µg/mL (≈ 144 µM).
As to `OCc1nc2ccccc2n1CCCCOc1ccccc1`, the kinetic solubility was > 44.5 µg/mL.
Regarding `CC(C)C(=O)N1CCN(c2ccccc2NC(=O)c2ccc(Br)o2)CC1`, the kinetic solubility worked out at 52.2 µg/mL (≈ 124 µM).
As for `CC1=C(C)CC(C(=O)NCc2cccc(Cl)c2)C(C(=O)O)C1` (centres undefined), the solubility (kinetic) is > 48.3 µg/mL.
Compound `CCc1cc2c(=O)n(-c3ccccc3)c(SCC(N)=O)nc2s1` showed a kinetic solubility of 2.8 µg/mL (≈ 8.11 µM).
For `COC(=O)C1CCN(S(=O)(=O)Cc2ccccc2Cl)CC1`, the solubility (kinetic) is > 49.8 µg/mL.
`CCOc1ncccc1C(=O)Nc1ccc(F)cc1` gave a kinetic solubility of 13.7 µg/mL (≈ 52.6 µM).
As to `O=C(CSC(=O)c1ccccc1)Nc1ccccc1F`, the solubility (kinetic) turned out to be 9.8 µg/mL (≈ 33.9 µM).
As to `O=C(NC1CCNCC1)C1CC1`, the solubility (kinetic) is > 25.2 µg/mL.
The compound `O=C(O)CCCCCNC(=O)OCC1c2ccccc2-c2ccccc21` came in with a kinetic solubility of 3.4 µg/mL (≈ 9.62 µM).
As for `CCC(=O)Nc1ccc(S(=O)(=O)Nc2ccccn2)cc1`, the solubility (kinetic) is > 45.8 µg/mL.
The result for `O=C(Nc1cccc(Cl)c1N1CCCC1)c1ccco1` reads 1.2 µg/mL (≈ 4.13 µM).
The result for `CCOc1ccccc1Nc1nc(-c2cccnc2)cs1` reads 10.6 µg/mL (≈ 35.6 µM); that for `CC(=O)c1cccc(NC(=O)C(C)OC(=O)CCc2nc3ccccc3c(=O)[nH]2)c1` (centres undefined), > 61.1 µg/mL; that for `N#Cc1c(-c2ccccc2)nc(SCc2ccc(Cl)cc2)[nH]c1=O`, 51.9 µg/mL (≈ 147 µM).
Consider `Cc1cccc(NC(=O)C(=O)NCC2CCCO2)c1` (centres undefined), for which the kinetic solubility was > 39.3 µg/mL.
In the case of `Cc1cccc(NCc2ccc(Br)cc2)n1`, the solubility (kinetic) came to 12 µg/mL (≈ 43.3 µM).
`CCNc1nc(-c2ccc(OC(F)F)cc2)c(C)s1` displayed a kinetic solubility of 20.9 µg/mL (≈ 73.5 µM).
For the compound `O=C(Nc1ccccc1Cl)c1cccc(NC(=O)C2CCCC2)c1`, the solubility (kinetic) is 26.9 µg/mL (≈ 78.5 µM).
Compound `CCOc1ccc(Nc2nc(N)c([N+](=O)[O-])c(N3CCN(C)CC3)n2)cc1` gave a solubility (kinetic) of 51.9 µg/mL (≈ 139 µM).
`Cc1ccc(NC(=O)CN2CCOCC2)cc1`: the kinetic solubility is > 35.1 µg/mL.
The result for `Cc1nc2ccsc2c(=O)n1-c1cccc(Cl)c1` reads > 41.5 µg/mL; that for `NC(=O)c1ccc(NC(=O)CCNC(=O)c2ccco2)cc1`, 41.2 µg/mL (≈ 137 µM).
Consider `COc1cccc(NC(=O)CN(C)CC(=O)NCc2ccc(F)cc2)c1`, for which the solubility (kinetic) is > 53.9 µg/mL.
On to `O=C(CN1CCC(NC(=O)C2CCCCC2)CC1)Nc1cccc(F)c1`, for which the solubility (kinetic) came to 18.4 µg/mL (≈ 50.9 µM).
In the case of `COc1ccc(CCNCc2sccc2C)cc1.Cl`, the solubility (kinetic) is > 44.7 µg/mL.
`CCOC(=O)N1CCN(C(=O)c2ccccc2NC(C)=O)CC1`: the solubility (kinetic) is > 47.9 µg/mL.
For the compound `Cc1noc(C)c1NC(=O)N1CCN(Cc2ccccc2)CC1`, the kinetic solubility was > 47.2 µg/mL.
Regarding `CCOC(=O)Cn1nc2sc3ccccc3n2c(=O)c1=O`, the solubility (kinetic) is > 45.8 µg/mL.
The result for `O=C(Cc1cccc2ccccc12)Nc1cccnc1` reads 39 µg/mL (≈ 149 µM).
Under `COc1ccccc1C(=O)NC1CCCc2ccccc21` (centres undefined) stands 33.2 µg/mL (≈ 118 µM).
The compound `CCN1C(=O)/C(=C\c2ccncc2)SC1=S` yielded a solubility (kinetic) of 6.2 µg/mL (≈ 24.8 µM).
In turn, `O=c1nc(-c2ccccc2)nc(-c2ccccc2)[nH]1` came in with a kinetic solubility of 22.9 µg/mL (≈ 91.9 µM).
Turning to `Cn1cc(C=C2C(=O)NC(=O)NC2=O)c2ccccc21`, the solubility (kinetic) stood at 2.6 µg/mL (≈ 9.66 µM).
The result for `COc1ccc(NC(=O)Nc2ccon2)cc1OC` reads > 39.5 µg/mL; that for `Cc1cc(OCCn2ccnc2)cc(C)c1Cl`, 30.8 µg/mL (≈ 123 µM); that for `O=Cc1ccc(OCC(=O)N2CCOCC2)cc1`, > 37.4 µg/mL.
Under `CN(c1ccccc1)c1nc(N)c([N+](=O)[O-])c(N2CCCC2)n1` stands 20.9 µg/mL (≈ 66.5 µM); under `O=[N+]([O-])c1ccc(N2CCN(Cc3ccc4c(c3)OCO4)CC2)nc1`, 7 µg/mL (≈ 20.4 µM); under `CCc1nnc(NC(=O)C2CSC3(C)CCC(=O)N23)s1` (centres undefined), > 46.9 µg/mL.
As for `COc1ccc(CCNC(=O)CN2C(=O)NC3(CCCCC3)C2=O)cc1`, the solubility (kinetic) is > 53.9 µg/mL.
With `COc1ccc2c(CC(=O)Nc3ccccc3OC)coc2c1`, the kinetic solubility was 31.4 µg/mL (≈ 101 µM).
As for `COc1ccc(C(=O)NC(=S)N2CCCC2)cc1`, the solubility (kinetic) was > 39.7 µg/mL.
Under `O=C1C2C3C=CC(C3)C2C(=O)N1c1ccc2ccccc2c1` (centres undefined) stands 12.3 µg/mL (≈ 42.5 µM); under `CC(=O)N(CCc1cccc(C)c1)Cc1cc2ccc(C)cc2[nH]c1=O`, 5.1 µg/mL (≈ 14.6 µM).
As for `Cc1noc(C)c1S(=O)(=O)N(Cc1ccccc1)C(C)C`, the solubility (kinetic) was determined as 36.5 µg/mL (≈ 118 µM).
The result for `COc1ccc(/C(N)=N/OC(=O)CC2CCCCC2)cc1OC` reads 19.1 µg/mL (≈ 59.6 µM).
As to `COc1ccc(NS(=O)(=O)c2ccc3c(c2)CCC(=O)N3)cc1O`, the kinetic solubility is > 52.3 µg/mL.
Consider `COc1ccc(C(=O)NN2CCOCC2)cc1`, for which the solubility (kinetic) is > 35.4 µg/mL.
Turning to `CNS(=O)(=O)c1cccc(C(=O)OCC(=O)NC2CCCC2)c1`, the solubility (kinetic) was > 51.1 µg/mL.
`O=C(Nc1ccccc1C(=O)Nc1ccccn1)c1cc(F)c(F)cc1Cl`: the kinetic solubility is < 0.3 µg/mL.
Consider `CCCc1nnc(SCC(=O)Nc2cc(C)on2)n1CCOC`, for which the solubility (kinetic) is > 50.9 µg/mL.
Consider `COc1ccc(-n2c(C)nnc2SCC(=O)NC2CC2)cc1`, for which the kinetic solubility is > 47.8 µg/mL.
Turning to `O=C(CNC(=O)[C@@H]1Cc2ccccc2CN1)NC1CCCC1`, the solubility (kinetic) is > 45.2 µg/mL.
Consider `O=C(COc1ccc(C(=O)c2ccccc2)cc1)Nc1cccnc1`, for which the solubility (kinetic) was > 49.9 µg/mL.
As to `Cc1ccc(C)c(S(=O)(=O)NC(C)C(=O)NCc2ccccn2)c1` (centres undefined), the kinetic solubility is > 52.1 µg/mL.
Take `COC(=O)C(Cc1ccc(O)cc1)N1Cc2ccccc2C1=O` (centres undefined): the kinetic solubility is > 46.7 µg/mL.
In turn, `S=C1Nc2ccccc2Sc2ccccc21` yielded a solubility (kinetic) of 1 µg/mL (≈ 4.11 µM).
Regarding `O=c1[nH]c2c(oc3ccccc32)c(=O)n1Cc1ccccc1`, the kinetic solubility is 3 µg/mL (≈ 10.3 µM).
The result for `Cc1ccc2nc(NC(=O)c3ccccc3F)sc2c1` reads < 0.3 µg/mL; that for `O=C1C(Cl)=CC(=Nc2ccc([O-])cc2)C=C1Cl.[Na+]`, > 43.5 µg/mL.
Compound `CCCc1cc(=O)[nH]c(SCC(=O)Nc2cccc3ccccc23)n1` yielded a kinetic solubility of 3.4 µg/mL (≈ 9.62 µM).
With `CN(C)C(=O)c1cc(C(=O)c2ccc(F)cc2F)c[nH]1`, the solubility (kinetic) was > 41.7 µg/mL.
Turning to `COc1cccc(C(=O)Nc2ccc(Oc3cccc(C(F)(F)F)c3)nc2)c1`, the kinetic solubility is < 0.4 µg/mL.
As to `COc1cccc(C(=O)c2c[nH]c(C(=O)NCc3cccnc3)c2)c1`, the solubility (kinetic) was > 50.3 µg/mL.
The result for `CCOc1ccccc1NC1=NC2CS(=O)(=O)CC2S1` (centres undefined) reads > 46.9 µg/mL; that for `CCN(CC)S(=O)(=O)c1ccc2[nH]c(=O)c3ccccc3c2c1`, < 0.4 µg/mL; that for `Cc1cccc(C)c1NC(=O)C1CC2CCC1C2` (centres undefined), 12.6 µg/mL (≈ 51.8 µM).
The result for `N#Cc1ccc(OCC(=O)OCC(=O)NC2CC2)cc1` reads > 41.1 µg/mL.
Consider `Cc1ccc(C(=O)N2CCCCC2C(=O)O)o1` (centres undefined), for which the solubility (kinetic) is > 35.6 µg/mL.
The result for `Cn1ccsc1=NC(=O)c1cccc(C#N)c1` reads > 36.5 µg/mL; that for `N#C/C(=C\c1c(F)cccc1Cl)C(=O)NC1CC1`, > 39.7 µg/mL; that for `CN(C)C(=O)c1cc(C(=O)c2ccccc2F)c[nH]1`, 38.9 µg/mL (≈ 149 µM).
Consider `O=C(Nc1cc(=O)[nH]c(=O)[nH]1)c1cccc(C(F)(F)F)c1`, for which the solubility (kinetic) was > 44.9 µg/mL.
Compound `Cn1c(=O)c2ccccc2n(Cc2cccc(F)c2)c1=O` had a solubility (kinetic) of 3.6 µg/mL (≈ 12.7 µM).
